Like-named read-outs stand apart in the source and are kept apart here.
What was measured:
[1] = [11C]GSK1034702 PET brain distribution and kinetics in healthy male humans; type: in vivo; conditions: male, human, intravenous
Procedure: An open-label PET study (GSK study number 110771) was conducted to assess the transport of [^11C]GSK1034702 across the BBB and its distribution in the living human brain. Four healthy males aged between 35 and 55 years old, with body mass index (BMI) between 19.0 and 29.0 kg/m^2, and the absence of past or present neurological, medical or psychiatric illnesses and concomitant medications were enrolled. Clinical status was assessed by history, physical examination, routine blood tests, urine toxicology and electrocardiogram. All subjects provided written informed consent. The study was approved by the Edinburgh Independent Ethics Committee for Medical Research and permission to administer radioisotopes was obtained from the Administration of Radioactive Substances Advisory Committee of the UK. Subjects were recruited by and monitored by the Hammersmith Medicines Research (HMR) clinic. All scanning procedures were performed at the GlaxoSmithKline Clinical Imaging Center, Hammersmith Hospital, London.
Each subject underwent a single study day, during which PET imaging was performed. T1-weighted structural MRI scan was performed for all subjects to provide neuroanatomical information. A tracer dose of [^11C]GSK1034702 (mass <50 μg) was administered as an IV bolus immediately before each PET scan. During the scanning day, each subject received a baseline [^11C]GSK1034702 scan, followed by a single 5-mg oral dose (p.o.) of […] and a subsequent [^11C]GSK1034702 scan approximately 4 h post-dose. Subjects returned to the clinic for a follow-up visit 7 to 14 days following the oral dose of GSK1034702.
Dynamic PET data were acquired using a Siemens Biograph 6 Truepoint with TrueV PET-CT (Siemens Healthcare, Malvern, PA, USA) in three-dimensional (3D) mode. A computed tomography (CT) scan was acquired for attenuation correction of PET data prior to administration of the radiotracer. A cannula was inserted under local anaesthesia into the radial artery, contralateral to the tracer injection site, and used to collect arterial blood samples to estimate the time course of radioactivity and metabolism of GSK1034702. The radiotracer was administered as an IV bolus over 20 s, and dynamic PET data were acquired for 90 min.
(§1) Arterial blood radioactivity was measured continuously for the first 15 min after [^11C]GSK1034702 injection, using a continuous sampling system (ABSS Allogg, Mariefred, Sweden). In addition, 12 serial discrete blood samples were obtained (at 5, 10, 15, 20, 25, 30, 40, 50, 60, 70, 80 and 90 min post injection), to determine whole blood and plasma activity. Seven samples (at 5, 10, 20, 30, 50, 70 and 90 min) were further processed by HPLC to measure the fraction of plasma activity representing unmetabolised GSK1034702. For all human studies, the non-protein-bound fraction of [^11C]GSK1034702 in arterial plasma (fP) was assessed by ultrafiltration for the blood sample taken at the beginning of the scan.
Emission PET data were binned into 26 frames (durations: 8 × 15 s, 3 × 60 s, 5 × 2 min, […], 5 × 10 min) and reconstructed using Fourier re-binning and a two-dimensional (2D) filtered back projection algorithm with a ramp filter. Image data were then smoothed with a Gaussian filter (5 mm FWHM). The PET reconstruction process included corrections for scatter, randoms and attenuation. Dynamic PET data were corrected for motion via frame-to-frame image registration and aligned with the structural T1 MRI image using SPM5 (Wellcome Trust Centre for Neuroimaging, http://www.fil.ion.ucl.ac.uk/spm) with a mutual information cost function.
The CIC Neuroanatomical Atlas was non-linearly deformed into the individual's space to obtain a personalised anatomical parcellation of ROIs. These ROIs were applied to the dynamic emission data, and regional TACs were obtained for the whole brain, frontal cortex, occipital cortex, striatum, thalamus, hippocampus and cerebellum. […]

[2] = plasma protein binding by equilibrium dialysis, rat; type: in vitro ADME; conditions: equilibrium dialysis 5 h
Procedure: (§2) The in vitro brain and plasma protein binding of GSK1034702 across a range of species was determined using equilibrium dialysis as described previously.

[3] = fP/fND ratio from equilibrium dialysis (expected VT for passive diffusion), primate; type: in vitro ADME; conditions: primate brain; monkey fP and monkey brain fND
Description: If a value for fND can be obtained, then the assumption of passive diffusion across the BBB can be tested. Under the conditions of passive diffusion, at equilibrium, CFT = CFP, and Eq. 3 is simplified to:4 VT=fP/fND
A VT measurement from a PET biodistribution study can be compared to the fP/fND ratio, and passive diffusion can be assumed if the two are similar. Equilibrium dialysis provides a practical method for measurements of brain tissue fND (and also fP if necessary).
Regional TACs with an arterial plasma metabolite- corrected input function were fitted using compartmental analyses, and estimates of the delivery rate constant for transfer from arterial plasma to tissue (K1) and VT were obtained. VT estimates derived were compared to in vitro estimates derived from equilibrium dialysis to investigate the BBB transport process.
as §2

[4] = plasma free fraction by ultrafiltration, human arterial plasma; type: in vitro ADME
Procedure: as §1

[5] = brain tissue binding by equilibrium dialysis, mouse; type: in vitro ADME; conditions: equilibrium dialysis 5 h
Procedure: as §2

## Cc1cc(F)c2[nH]c(=O)n(C3CCN(C4CCOCC4)CC3)c2c1 [GSK1034702]
[1]; cortex, read-out: VT measured in the human cortex
  Kp: 4.9
[1]; whole brain, two-tissue compartmental model, read-out: whole brain VT
  Kp: 4.9
[2]; Rat (CD), read-out: f P (plasma-free fraction)
  fraction unbound at 5 h, 1 μg/mL: 0.53
[2]; Rat (CD, Sprague Dawley), mean ± SD, n = 6, read-out: Plasma protein binding (converted)
  fraction unbound at 5 h, 1 μg/mL: 0.528
[2]; Rat (LH), read-out: f P (plasma-free fraction)
  fraction unbound at 5 h, 1 μg/mL: 0.55
[2]; Rat (LH, Lister hooded), mean ± SD, n = 6, read-out: Plasma protein binding (converted)
  fraction unbound at 5 h, 1 μg/mL: 0.545
[3]
  fP/fND ratio (expected VT if passive diffusion): 3.4
[4]; Average of four subjects
  f P Baseline: 0.45
[4]; Average, after 5 mg oral
  f P Post-dose: 0.44
[4]; Subject 1
  f P Baseline: 0.42
[4]; Subject 2
  f P Baseline: 0.43
[4]; Subject 2, after 5 mg oral
  f P Post-dose: 0.41
[4]; Subject 3
  f P Baseline: 0.43
[4]; Subject 3, after 5 mg oral
  f P Post-dose: 0.43
[4]; Subject 4
  f P Baseline: 0.51
[4]; Subject 4, after 5 mg oral
  f P Post-dose: 0.48
[5]; brain tissue, read-out: f ND (brain-free fraction)
  fraction unbound at 5 h, 1 μg/mL: 0.13
[5]; 1 μg/mL, mean ± SD, n = 6
  Brain tissue binding: 86.7 (±0.6) %
